According to ChEMBL document CHEMBL1201862, “PubChem BioAssay data set” (2004):
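Cultured in 96-well plates, cells were exposed to test compound for 48 hours across five concentrations. At the GI50, growth is halved.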 Activity calls are given as the source filed them. No stated cut-off is given here; in the data, active = GI50 up to about 1.1 µM and inactive = higher.

Legend:
Assay in all cases: NCI tumour cell line growth inhibition, 48 h
786-0 = tested on: 786-0
A498 = tested on: A498
A549 = tested on: A549
ACHN = tested on: ACHN
BT-549 = tested on: BT-549
CCRF-CEM = tested on: CCRF-CEM
COLO 205 = tested on: COLO 205
DU-145 = tested on: DU-145
EKVX = tested on: EKVX
HCC 2998 = tested on: HCC 2998
HCT-116 = tested on: HCT-116
HCT-15 = tested on: HCT-15
HL-60 = tested on: HL-60
HOP-62 = tested on: HOP-62
HOP-92 = tested on: HOP-92
HT-29 = tested on: HT-29
Hs-578T = tested on: Hs-578T
IGROV-1 = tested on: IGROV-1
K562 = tested on: K562
KM12 = tested on: KM12
LOX IMVI = tested on: LOX IMVI
M14 = tested on: M14
MCF7 = tested on: MCF7
MDA-MB-231 = tested on: MDA-MB-231
MDA-MB-435 = tested on: MDA-MB-435
MDA-N = tested on: MDA-N
MOLT-4 = tested on: MOLT-4
Malme-3M = tested on: Malme-3M
NCI-H226 = tested on: NCI-H226
NCI-H23 = tested on: NCI-H23
NCI-H460 = tested on: NCI-H460
NCI-H522 = tested on: NCI-H522
NCI/ADR-RES = tested on: NCI/ADR-RES
OVCAR-3 = tested on: OVCAR-3
OVCAR-4 = tested on: OVCAR-4
OVCAR-8 = tested on: OVCAR-8
PC-3 = tested on: PC-3
RPMI-8226 = tested on: RPMI-8226
RXF 393 = tested on: RXF 393
SF-268 = tested on: SF-268
SF-295 = tested on: SF-295
SF-539 = tested on: SF-539
SK-MEL-28 = tested on: SK-MEL-28
SK-OV-3 = tested on: SK-OV-3
SN12C = tested on: SN12C
SNB-75 = tested on: SNB-75
SR = tested on: SR
SW-620 = tested on: SW-620
T47D = tested on: T47D
TK-10 = tested on: TK-10
U-251 = tested on: U-251
UACC-257 = tested on: UACC-257
UACC-62 = tested on: UACC-62
UO-31 = tested on: UO-31
CAKI-1 = tested on: CAKI-1
SK-MEL-2 = tested on: SK-MEL-2
SK-MEL-5 = tested on: SK-MEL-5
SNB-19 = tested on: SNB-19

Measured: GI50

[N-]=[N+]=NC1(N=[N+]=[N-])C(=O)NN=C(c2ccccc2)C1=O (configuration not stated)
inactive: 786-0 > 100 µM | A498 > 100 µM | A549 > 100 µM | ACHN > 100 µM | BT-549 > 100 µM | CCRF-CEM 32.2 µM | COLO 205 > 100 µM | DU-145 > 100 µM | EKVX > 100 µM | HCC 2998 > 100 µM | HCT-116 16.8 µM | HL-60 35.3 µM | HOP-62 > 100 µM | HOP-92 > 100 µM | HT-29 > 100 µM | Hs-578T > 100 µM | IGROV-1 > 100 µM | K562 38.9 µM | KM12 > 100 µM | LOX IMVI 37.7 µM | M14 > 100 µM | MCF7 62.7 µM | MDA-MB-231 > 100 µM | MDA-MB-435 18.4 µM | MDA-N 20.7 µM | MOLT-4 28.8 µM | Malme-3M 7.18 µM | NCI-H226 > 100 µM | NCI-H23 > 100 µM | NCI-H460 > 100 µM | NCI-H522 > 100 µM | NCI/ADR-RES > 100 µM | OVCAR-3 68.4 µM | OVCAR-4 57.4 µM | OVCAR-8 82.2 µM | PC-3 > 100 µM | RPMI-8226 41.3 µM | RXF 393 45.5 µM | SF-268 13 µM | SF-295 61.4 µM | SF-539 > 100 µM | SK-MEL-28 16.3 µM | SK-OV-3 > 100 µM | SN12C > 100 µM | SNB-75 > 100 µM | SR 32.7 µM | SW-620 50.9 µM | T47D 31.1 µM | TK-10 > 100 µM | U-251 > 100 µM | UACC-257 97.5 µM | UACC-62 57.7 µM | UO-31 > 100 µM
> 100 µM: HCT-15

CN(C)Cc1cc(/N=N/c2c(Cl)cccc2Cl)ccc1O
inactive: 786-0 64.1 µM | A498 55.5 µM | A549 61.5 µM | ACHN 56.4 µM | BT-549 49 µM | CAKI-1 > 100 µM | CCRF-CEM > 100 µM | COLO 205 > 100 µM | DU-145 8.49 µM | EKVX > 100 µM | HCC 2998 > 100 µM | HCT-116 > 100 µM | HL-60 68.4 µM | HOP-62 > 100 µM | HOP-92 31.9 µM | HT-29 50.4 µM | Hs-578T 40.9 µM | IGROV-1 61.4 µM | K562 53.5 µM | KM12 > 100 µM | LOX IMVI 74.3 µM | M14 > 10 µM | MCF7 > 100 µM | MDA-MB-231 > 100 µM | MDA-MB-435 88.9 µM | MDA-N > 100 µM | MOLT-4 67.3 µM | Malme-3M 74.5 µM | NCI-H226 35.2 µM | NCI-H23 63.4 µM | NCI-H460 75 µM | NCI-H522 > 100 µM | NCI/ADR-RES > 100 µM | OVCAR-3 57.4 µM | OVCAR-4 > 100 µM | OVCAR-8 > 100 µM | PC-3 > 100 µM | RPMI-8226 74.8 µM | RXF 393 23.4 µM | SF-268 > 100 µM | SF-295 > 100 µM | SF-539 > 100 µM | SK-MEL-28 71.8 µM | SK-MEL-2 > 100 µM | SK-MEL-5 17.5 µM | SK-OV-3 > 100 µM | SN12C > 100 µM | SNB-19 > 100 µM | SNB-75 > 100 µM | SR 48.9 µM | SW-620 79.6 µM | T47D 42.6 µM | TK-10 > 100 µM | U-251 85.7 µM | UACC-257 79.6 µM | UACC-62 62.2 µM | UO-31 36 µM
> 100 µM: HCT-15
